Reference: patent publication US20090275538A1, “ARYLMETHYLIDENE HETEROCYCLES AS NOVEL ANALGESICS” (priority 2008, published 2009)

tested on: neuropathic rats (chronic constriction injury of the left sciatic nerve); assay: Analgesic effect in chronic constriction injury (Bennett) model of neuropathic pain, Von Frey 50% withdrawal threshold; type: in vivo, Sprague-Dawley rats; settings: rats rendered neuropathic via the Bennett Model; intrathecal administration in Captisol; mean ± SEM; p<0.05 vs vehicle control
Experimental: Determination of Analgesic Effect in an Experimental Model of Neuropathic Pain
Adult, male Sprague-Dawley rats were obtained from Charles River Laboratories (Wilmington, Mass.) and housed under standard conditions at the Institut Armand-Frappier (Laval, QC). Food and water were provided to experimental animals ad libitum, and rats weighed 175-200 grams at the time of assessment.
Compounds were prepared for intrathecal administration by dissolving them in a vehicle of Captisol® (CyDex, Lenexa, Kans.); total volume of solution administered to rats was 20 μL.
Neuropathic pain was induced in rats via chronic constriction injury (CCl) of the left sciatic nerve in accordance with the procedure described by Bennett & Xie (Pain, 1988). Briefly, under ketamine/xylazine anaesthesia, the sciatic nerve was exposed by dissection at the level of mid-thigh, and four loose ligatures (USP 4/0, Braun Melsungen, FRG) were implanted around the nerve—with due attention not to interrupt the epineural circulation. The incision was closed-up using simple suturing, and the rats allowed to recover.
After approximately two weeks, a stable allodynia to blunt mechanical stimuli was identified in the hind paw ipsilateral to the CCl, manifested as a reduction of 50% withdrawal threshold, and identified using the Von Frey technique, as described by Chaplan et al. (Journal of Neuroscience Methods, 1994). Rats were considered to be fully neuropathic upon displaying a 50% withdrawal threshold of <3.5 grams consistently over the course of 72 hours.
Under brief isoflurane […], compounds were administered to neuropathic rats via acute local delivery in the intrathecal space surrounding the lumbar enlargement of the spinal cord.

Compound | Peak 50% Withdrawal Threshold
CN(C)C(=O)Oc1cc(F)ccc1/C=C1/SC(N2CCCCN2)=NC1=O.Cl [2-{[(5E)-2-(1,2-diazinan-1-yl)-4-oxo-4,5-dihydro-1,3-thiazol-5-ylidene]methyl}-5-fluorophenyl N,N-dimethylcarbamate hydrochloride] | 6.18 ± 1.77 g
CN(C)[C@H]1CCN(C2=NC(=O)/C(=C/c3ccc(F)cc3O)S2)C1.CS(=O)(=O)O | 7.3 ± 1.37 g
O=C1N=C(N2CCCCC2)S/C1=C\c1ccccc1O | 6.74 ± 2.13 g
CN(C)[C@H]1CCN(C2=NC(=O)/C(=C/c3cc(F)ccc3O)S2)C1.CS(=O)(=O)O | 9.72 ± 2.04 g
Cl.O=C1N=C(N2CCCCN2)S/C1=C/c1ccc(F)cc1OC(=O)N1CCCC1 [2-{[(5E)-2-(1,2-diazinan-1-yl)-4-oxo-4,5-dihydro-1,3-thiazol-5-ylidene]methyl}-5-fluorophenyl pyrrolidine-1-carboxylate hydrochloride] | 7.42 ± 1.21 g
CN(C)[C@@H]1CCN(C2=NC/C(=C/c3cc(F)ccc3O)S2)C1.Cl | 6.44 ± 1.33 g
O=C1N=C(N2CCCCN2)S/C1=C\c1cc(F)ccc1O [(5Z)-2-(1,2-diazinan-1-yl)-5-[(5-fluoro-2-hydroxyphenyl)methylidene]-4,5-dihydro-1,3-thiazol-4-one] | 9.03 ± 2.00 g
CN(C)[C@@H]1CCN(C2=NC(=O)/C(=C/c3ccc(F)cc3O)S2)C1 | 5.6 ± 1.94 g
CS(=O)(=O)O.O=C1N=C(N2CCN(CCO)CC2)S/C1=C\c1cc(F)ccc1O | 6.40 ± 2.45 g
O=C1N=C(N2CCCCN2)S/C1=C\c1ccc(F)cc1O [(5Z)-2-(1,2-diazinan-1-yl)-5-[(4-fluoro-2-hydroxyphenyl)methylidene]-4,5-dihydro-1,3-thiazol-4-one] | 7.37 ± 2.02 g
O=C1N=C(N2CCN(CCO)CC2)S/C1=C\c1ccc(F)cc1O | 8.23 ± 2.40 g
CCN(CC)C1CCN(C2=NC(=O)/C(=C\c3cc(F)ccc3OC(=O)N(C)C)S2)C1 (stereo not shown) | 11.84 ± 1.58 g
Cl.O=C1N=C(N2CCCCN2)S/C1=C/c1cc(F)ccc1OC(=O)N1CCCC1 [2-{[(5E)-2-(1,2-diazinan-1-yl)-4-oxo-4,5-dihydro-1,3-thiazol-5-ylidene]methyl}-4-fluorophenylpyrrolidine-1-carboxylate hydrochloride] | 8.18 ± 1.98 g
